# Reference: paper PMC9149975, “The diaryl-imidazopyridazine anti-plasmodial compound, MMV652103, exhibits anti-breast cancer activity” (EXCLI Journal, 2022)
# Where two headings read alike, the source gives them in different places.
# Experiments:
# MCF7 cells = test: Cell cycle analysis by flow cytometry; type: cell-based, human; conditions: IC50, 24 and 48 h
# Protocol: Log-phase MCF7 cells were exposed to MMV652103 for 24 and 48 h and both adherent and floating cells were collected, processed as previously described and analyzed using a Becton Dickinson FACSCalibur flow cytometer (Becton Dickinson, New Jersey, USA) with a 488 nm coherent laser (Bleloch et al., 2019[8]). The data were acquired using CellQuest Pro version 5.2.1. software (Becton Dickinson) and the analyses were done using ModFit version 2.0. software (Verity Software House Inc, Maine, USA).
# PIK3CG = biological target: T1, PIK3CG (Homo sapiens, UniProt P48736); test: ADP-Glo lipid kinase assay, PIK3CG; type: biochemical; conditions: 10 µM compound
# T1 construct: purchased Carna Biosciences Inc; Invitrogen Corporation
# [1] = system: FG0 human skin fibroblasts; test: MTT cytotoxicity assay, FG0; type: cell-based; conditions: Skin fibroblast
# Protocol: Human estrogen-receptor positive (ER+) breast adenocarcinoma cell lines, MCF7 and T47D, were maintained in Roswell Park Memorial Institute-1640 medium (Sigma Aldrich, Missouri, USA) and the human epidermal growth factor receptor 2 positive (HER2+) BT474, and triple negative (TNBC) MDA-MB-231 and MDA-MB-468 cells were maintained in Dulbecco's Modified Eagle's Medium (DMEM) (Sigma Aldrich, Missouri, USA). […]
# (§1) Cells (3.5×10^3-6×10^3 / well) were seeded in 96-well plates and treated at a 60-70 % confluence with a range of concentrations (0-10 μM) of test compounds or vehicle for 48 h. Cell viability was measured using the 3-(4,5-dimethylthiazol-2-yl)-2,5-diphenyl-trazolium bromide (MTT) assay (11465007001; Sigma Aldrich) according to the manufacturer's instructions. Mean cell viability was calculated as a percentage of the mean vehicle control. A minimum of three independent experiments in quadruplicate were performed from which the IC50 was determined from sigmoidal plots using GraphPad Prism version 6.0 (GraphPad Software, California, USA). The selectivity index (SI) was determined by dividing the IC50 of a non-malignant cell line by the IC50 of a cancer cell line.
# PI4KB = biological target: T2, PI4KB (Homo sapiens, UniProt Q9UBF8); test: ADP-Glo lipid kinase assay, PI4KB; type: biochemical
# T2 construct: purchased Carna Biosciences Inc; Invitrogen Corporation
# Protocol: (§2) A non-radiometric kinase assay (ADP-Glo™ Assay, Promega, Madison, Wi, USA) was used for measuring the kinase activity of the 2 lipid kinases, phosphatidylinositol 4-kinase beta (encoded by the PI4KB gene) and phosphatidylinositol-4-Phosphate 3-Kinase Catalytic Subunit Type 2 Gamma (encoded by the PIK3C2G gene). All kinase assays were performed in 96-well half-area microtiter plates from Greiner Bio-One (Frickenhausen, Germany) in 25 µl reaction volumes. […] In addition, the assay for PI4KB contained 3 mM MnCl2 and the assay for PIK3C2G contained 3 mM MgCl2. Kinases from external vendors (Carna Biosciences Inc.; Invitrogen Corporation; Millipore Corporation) were expressed, purified and quality-controlled by virtue of the vendors readings. The reaction cocktails were incubated at 30 °C for 60 min. The reaction was stopped with 25 µl ADP-Glo reagent per well. Plates were incubated for 40 min at RT, followed by the addition of 50 µl kinase detection reagent per well and incubation for 60 min at RT. Signal was determined with a microplate luminescence reader (Victor, Perkin Elmer). […]
# (§3) For each kinase, the median value of the counts per second (cps) of three wells with complete reaction cocktails, but without kinase, was defined as "low control" (n=3). […] The residual activity (in %) for each well of each row of a particular plate was calculated by using the following formula: […]
# PIK3C2G = biological target: T3, PIK3C2G (Homo sapiens, UniProt O75747); test: ADP-Glo lipid kinase assay, PIK3C2G; type: biochemical
# T3 construct: purchased Carna Biosciences Inc; Invitrogen Corporation
# Protocol: as §2, §3
# PIK3CA/ PIK3R1 = biological target: T4, PIK3CA/ PIK3R1 (Homo sapiens, UniProt P42336); test: ADP-Glo lipid kinase assay, PIK3CA/PIK3R1; type: biochemical; conditions: 10 µM compound
# T4 construct: purchased Carna Biosciences Inc; Invitrogen Corporation
# [2] = system: MCF7 (breast cancer cell line); test: MTT cytotoxicity assay, MCF7; type: cell-based, human; conditions: for IC50: Homo sapiens
# Description: Human estrogen-receptor positive (ER+) breast adenocarcinoma cell lines, MCF7 and T47D, were maintained in Roswell Park Memorial Institute-1640 medium (Sigma Aldrich, Missouri, USA) and the human epidermal growth factor receptor 2 positive (HER2+) BT474, and triple negative (TNBC) MDA-MB-231 and MDA-MB-468 cells were maintained in Dulbecco's Modified Eagle's Medium (DMEM) (Sigma Aldrich, Missouri, USA). FG0 human skin fibroblasts (provided by Associate Professor Denver Hendricks, University of Cape Town) were maintained in DMEM while the normal breast epithelial cell line MCF12A was maintained in DMEM:nutrient mixture F-12 (DMEM/F12; 1:1; Sigma Aldrich, Missouri, USA), supplemented with 20 ng/ml epidermal growth factor, 100 ng/ml cholera toxin, 500 ng/ml hydrocortisone and 10 µg/ml insulin. All media were supplemented with 10 % fetal bovine serum, 100 U/ml penicillin and 100 µg/ml streptomycin. Cells were maintained at 37 °C in a 5 % CO2 and 95 % air-humidified incubator. Media was replaced every 2-3 days and cells were routinely tested for mycoplasma infection.
# as §1
# Briefly, the cells were treated with a range of concentrations (2 - 20 µM) of each compound or vehicle (DMSO) for 48 h and MTT assays were performed. […] Based on the promising IC50 and SI values obtained for MMV652103, it was chosen for further studies.
# PIK3CB/ PIK3R1 = biological target: T5, PIK3CB/ PIK3R1 (Homo sapiens, UniProt P42338); test: ADP-Glo lipid kinase assay, PIK3CB/PIK3R1; type: biochemical; conditions: 10 µM compound
# T5 construct: purchased Carna Biosciences Inc; Invitrogen Corporation
# PIK3C2B = biological target: T6, PIK3C2B (Homo sapiens, UniProt O00750); test: ADP-Glo lipid kinase assay, PIK3C2B; type: biochemical; conditions: 10 µM compound
# T6 construct: purchased Carna Biosciences Inc; Invitrogen Corporation
# PIK3CD/ PIK3R1 = biological target: T7, PIK3CD/ PIK3R1 (Homo sapiens, UniProt O00329); test: ADP-Glo lipid kinase assay, PIK3CD/PIK3R1; type: biochemical; conditions: 10 µM compound
# T7 construct: purchased Carna Biosciences Inc; Invitrogen Corporation
# T7 sequence (O00329 whole entry): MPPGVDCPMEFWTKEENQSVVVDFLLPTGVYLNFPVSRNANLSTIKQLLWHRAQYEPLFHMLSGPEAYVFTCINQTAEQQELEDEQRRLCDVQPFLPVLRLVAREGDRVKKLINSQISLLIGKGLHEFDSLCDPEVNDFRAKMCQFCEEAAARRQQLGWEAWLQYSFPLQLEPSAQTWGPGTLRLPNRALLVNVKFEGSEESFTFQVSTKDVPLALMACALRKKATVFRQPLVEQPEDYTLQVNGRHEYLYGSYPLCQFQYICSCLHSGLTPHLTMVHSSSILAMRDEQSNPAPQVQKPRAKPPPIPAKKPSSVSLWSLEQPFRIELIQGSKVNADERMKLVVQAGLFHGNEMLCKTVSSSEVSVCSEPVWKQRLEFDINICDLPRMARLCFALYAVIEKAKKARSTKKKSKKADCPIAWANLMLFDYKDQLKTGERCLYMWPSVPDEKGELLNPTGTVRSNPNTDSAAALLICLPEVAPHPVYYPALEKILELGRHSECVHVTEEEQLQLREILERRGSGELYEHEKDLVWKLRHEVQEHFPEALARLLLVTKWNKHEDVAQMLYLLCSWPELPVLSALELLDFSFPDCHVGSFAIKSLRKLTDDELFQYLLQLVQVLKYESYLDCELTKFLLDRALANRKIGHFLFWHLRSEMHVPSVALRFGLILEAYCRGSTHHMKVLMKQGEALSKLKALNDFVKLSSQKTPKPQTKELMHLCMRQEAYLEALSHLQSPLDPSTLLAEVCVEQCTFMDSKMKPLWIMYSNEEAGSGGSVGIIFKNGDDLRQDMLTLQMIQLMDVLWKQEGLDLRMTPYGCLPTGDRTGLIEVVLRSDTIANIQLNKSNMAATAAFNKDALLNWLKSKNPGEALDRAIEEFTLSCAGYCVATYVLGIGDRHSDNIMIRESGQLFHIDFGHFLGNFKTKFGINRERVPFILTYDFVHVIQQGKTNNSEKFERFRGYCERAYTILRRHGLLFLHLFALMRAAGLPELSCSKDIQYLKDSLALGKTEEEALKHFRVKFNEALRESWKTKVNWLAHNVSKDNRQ
# T7 sequence (P27986 whole entry partner): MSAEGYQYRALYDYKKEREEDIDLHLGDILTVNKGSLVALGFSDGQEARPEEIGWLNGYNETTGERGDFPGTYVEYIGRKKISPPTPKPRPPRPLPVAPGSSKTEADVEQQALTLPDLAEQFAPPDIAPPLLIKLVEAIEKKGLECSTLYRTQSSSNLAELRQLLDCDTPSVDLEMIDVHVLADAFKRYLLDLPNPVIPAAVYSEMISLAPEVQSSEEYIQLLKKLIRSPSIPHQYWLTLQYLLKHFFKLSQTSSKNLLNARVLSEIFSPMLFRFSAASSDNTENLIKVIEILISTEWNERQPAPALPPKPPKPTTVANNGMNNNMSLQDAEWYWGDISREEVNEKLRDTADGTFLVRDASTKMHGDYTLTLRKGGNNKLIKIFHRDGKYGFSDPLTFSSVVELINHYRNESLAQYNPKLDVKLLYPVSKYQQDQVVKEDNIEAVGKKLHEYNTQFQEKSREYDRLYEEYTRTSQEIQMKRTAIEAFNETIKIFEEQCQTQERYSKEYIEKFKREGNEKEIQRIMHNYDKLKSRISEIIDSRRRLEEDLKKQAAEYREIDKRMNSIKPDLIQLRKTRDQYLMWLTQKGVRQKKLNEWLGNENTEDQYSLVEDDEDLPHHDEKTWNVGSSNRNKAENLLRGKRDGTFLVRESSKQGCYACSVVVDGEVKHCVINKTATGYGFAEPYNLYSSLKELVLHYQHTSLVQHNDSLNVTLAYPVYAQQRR
# T2 sequence (Q9UBF8 whole entry): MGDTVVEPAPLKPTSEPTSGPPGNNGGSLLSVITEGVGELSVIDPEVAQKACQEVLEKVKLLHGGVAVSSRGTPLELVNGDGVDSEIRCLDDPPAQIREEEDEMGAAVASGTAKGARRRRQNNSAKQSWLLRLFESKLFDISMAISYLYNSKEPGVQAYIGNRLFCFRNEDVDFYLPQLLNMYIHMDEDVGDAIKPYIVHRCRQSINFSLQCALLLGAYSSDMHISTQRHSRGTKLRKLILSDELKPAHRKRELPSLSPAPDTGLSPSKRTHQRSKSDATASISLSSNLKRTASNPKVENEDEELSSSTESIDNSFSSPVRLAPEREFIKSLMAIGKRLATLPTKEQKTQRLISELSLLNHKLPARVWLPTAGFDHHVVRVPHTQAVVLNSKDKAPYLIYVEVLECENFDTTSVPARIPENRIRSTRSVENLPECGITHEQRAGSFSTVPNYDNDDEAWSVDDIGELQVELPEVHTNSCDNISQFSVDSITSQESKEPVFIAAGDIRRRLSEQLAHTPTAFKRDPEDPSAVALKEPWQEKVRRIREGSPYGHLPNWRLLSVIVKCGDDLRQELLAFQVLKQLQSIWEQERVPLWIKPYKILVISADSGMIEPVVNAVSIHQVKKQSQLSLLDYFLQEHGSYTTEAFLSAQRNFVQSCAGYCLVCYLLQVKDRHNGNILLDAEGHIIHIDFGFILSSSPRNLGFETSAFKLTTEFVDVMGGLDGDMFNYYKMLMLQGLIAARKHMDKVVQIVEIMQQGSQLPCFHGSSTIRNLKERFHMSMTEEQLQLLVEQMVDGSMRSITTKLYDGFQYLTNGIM
# T3 sequence (O75747 whole entry): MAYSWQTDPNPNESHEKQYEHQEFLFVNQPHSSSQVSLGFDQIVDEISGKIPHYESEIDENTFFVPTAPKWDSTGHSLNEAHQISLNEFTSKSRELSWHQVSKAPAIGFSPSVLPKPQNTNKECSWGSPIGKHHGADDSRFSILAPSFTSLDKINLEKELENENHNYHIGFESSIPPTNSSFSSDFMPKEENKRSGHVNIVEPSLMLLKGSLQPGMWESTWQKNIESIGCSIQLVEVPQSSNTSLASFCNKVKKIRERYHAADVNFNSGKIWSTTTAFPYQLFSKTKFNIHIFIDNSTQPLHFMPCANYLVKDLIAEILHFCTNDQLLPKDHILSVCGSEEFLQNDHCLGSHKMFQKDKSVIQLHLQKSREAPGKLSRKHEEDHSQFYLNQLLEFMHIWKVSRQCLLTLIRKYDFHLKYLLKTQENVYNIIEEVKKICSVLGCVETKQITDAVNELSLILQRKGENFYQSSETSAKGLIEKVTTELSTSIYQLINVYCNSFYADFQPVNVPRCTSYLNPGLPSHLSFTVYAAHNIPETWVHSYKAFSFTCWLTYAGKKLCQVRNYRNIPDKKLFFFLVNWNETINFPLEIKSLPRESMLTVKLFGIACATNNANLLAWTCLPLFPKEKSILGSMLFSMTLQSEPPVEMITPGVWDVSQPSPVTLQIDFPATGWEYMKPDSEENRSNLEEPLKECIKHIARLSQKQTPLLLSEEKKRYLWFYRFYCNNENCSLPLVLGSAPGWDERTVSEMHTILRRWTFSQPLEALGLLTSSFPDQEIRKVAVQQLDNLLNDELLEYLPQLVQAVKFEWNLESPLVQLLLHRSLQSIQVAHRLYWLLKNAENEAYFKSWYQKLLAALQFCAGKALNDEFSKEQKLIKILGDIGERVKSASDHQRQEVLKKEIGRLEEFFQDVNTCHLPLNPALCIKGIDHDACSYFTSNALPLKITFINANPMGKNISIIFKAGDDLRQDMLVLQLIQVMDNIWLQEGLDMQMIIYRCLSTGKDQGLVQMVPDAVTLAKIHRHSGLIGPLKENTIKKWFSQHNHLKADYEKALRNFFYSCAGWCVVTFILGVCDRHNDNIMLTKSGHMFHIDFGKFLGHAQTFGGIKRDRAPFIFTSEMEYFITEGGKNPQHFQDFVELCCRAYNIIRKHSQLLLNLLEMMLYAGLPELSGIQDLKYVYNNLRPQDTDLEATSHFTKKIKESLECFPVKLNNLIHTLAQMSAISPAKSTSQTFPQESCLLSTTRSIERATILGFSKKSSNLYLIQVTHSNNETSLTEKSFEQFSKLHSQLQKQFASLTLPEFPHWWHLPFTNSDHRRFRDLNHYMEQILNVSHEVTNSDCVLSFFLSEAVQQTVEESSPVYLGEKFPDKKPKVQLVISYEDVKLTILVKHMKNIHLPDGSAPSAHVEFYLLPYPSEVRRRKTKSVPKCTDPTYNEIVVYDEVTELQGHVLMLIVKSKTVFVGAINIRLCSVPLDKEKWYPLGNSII
structure (smiles),measurement,setting,value
CS(=O)(=O)c1ccc(-c2cnc3ccc(-c4cccc(S(C)(=O)=O)c4)nn23)cc1 [MMV652103],effect on MCF7 cell cycle progression,MCF7 cells,induced sub-G1 peaks and arrested cells in G1
same,remaining activity at 10 µM,PIK3CG,2%
same,IC50,"[1]; Fig 2C summary, MTT 48 h, read-out: IC50 ± SEM FG0",> 10000 nM
same,IC50,"[1]; MTT, 48 h, exact IC50 not reached, predicted, read-out: IC50 FG0",> 10000 nM
same,remaining activity at 10 µM,PI4KB; 10 µM compound,23%
same,IC50,PI4KB; ADP-Glo,1700 nM
same,remaining activity at 10 µM,PIK3C2G; 10 µM compound,4%
same,IC50,PIK3C2G; ADP-Glo,85 nM
same,remaining activity at 10 µM,PIK3CA/ PIK3R1,3%
same,IC50,"[2]; MCF7, Fig 2C summary, MTT 48 h, read-out: IC50 ± SEM MCF7",2200 ± 1150 nM
same,IC50,"[2]; MCF7, MTT, 48 h, read-out: Cytotoxicity assays (MTT) IC50 MCF7",2200 nM
same,IC50,"[2]; average of MCF7 and T47D, read-out: average IC50 in the ER+ cell lines MCF7 and T47D",2500 nM
same,SI IC50 MCF12A / IC50 MCF7,"[2]; selectivity index, MCF12A vs MCF7",3.02
same,remaining activity at 10 µM,PIK3CB/ PIK3R1,19%
same,remaining activity at 10 µM,PIK3C2B,31%
same,remaining activity at 10 µM,PIK3CD/ PIK3R1,3%
